Data on 2 compounds can be found in US20250059139A1, “COMPOUNDS FOR TREATMENT OF CANCER” (THE JOHNS HOPKINS UNIVERSITY, priority 2021, published 2025).

Data set [1] deals with CWR22-RH human prostate cancer PDXs. The data set can be described thus: In vivo growth of CWR22-RH xenografts in castrate NSG male mice. The conditions noted are these: for CWR22-RH Tumor Growth (% inhibition +/− SD): castrate mice treated orally over a 3 week period, n = 5/group. The text has this: (§1) Prostate Cancer Models. The source, history, and characteristics of the human prostate cancer cell lines and PDXs used, as well as cell culture conditions for their in vitro maintenance and the in vivo protocol for xenograft growth in triple immune-deficient NSG (i.e. NOD.Cg-PrkdcScidIl2rgtmlWji/Szj), adult (>8 week old) male mice obtained from the Sidney Kimmel Comprehensive Cancer Center (SKCCC) Animal Core Facility are described previously (Isaacs 2013; Brennen et al. JCI Insight. 2021, 6(8):e146827; Zhu et al. Oncogene 2020, 39(45): 6935-6949). Similar information concerning the TRAMP-C2 and B6CaP mouse prostate cancers originating in a C57BL/6J male mice are described previously (Foster et al. Cancer Res. 1997, 57: 3325-3330; Simons et al. Oncotarget. 2019, 10(64):6845-6854). In vitro growth curves were determined as described (Isaacs 2013). In vivo growth response to oral daily TasQ (10 mg/kg/d) of TRAMP-C2 mouse prostate cancers was evaluated in C57BL/6J syngeneic wild type vs. NOX-2 vs. iNOS null male mice obtained from Jackson Laboratory (Bar Harbor, ME). Growth response to oral daily TasQ (10 mg/kg/d) of TRAMP-C2 and B6CaP mouse prostate cancers was also evaluated in S100A9 null C57BL′6J male mice obtained from Dmitry Gabrilovich (Wistar Institute). All lines were mycoplasma negative using the MycoSensor PCR Assay kit (Agilent Technologies) and genetically authenticated within the last 6 months using short tandem repeat profiling conducted by the Johns Hopkins Genetic Resource Core Facility. In vitro growth curves were determined as described (Isaacs 2013). Growth response to daily oral TasQ vs. ESATA-20 (both at 10 mg/kg/d) of Myc-CaP-CR mouse prostate cancer was evaluated in syngeneic FVB/NJ castrate male mice from Jackson Laboratory. Animal studies were conducted according to animal protocols approved by Johns Hopkins Animal Care and Use Committee. Tumor volume measurements were as described previously (id.). In vivo experiments were repeated multiple independent times for each model used with 3-5 mice per treatment grouping.
(§2) Oral Drug treatment. TasQ at the indicated dose was initially dissolved with equal molar 1 N sodium hydroxide. This solution was diluted with sterile water and the mixture stirred for 1 hr. The pH was then adjusted with 1 N HCl to 8.9 and 200 μL given daily via oral gavage.
Due to these combined effects, maximal growth inhibition of CWR22-RH, a castration-resistant prostate cancer patient-derived xenograft (PDX), is obtained as maintenance therapy with oral daily dosing of ≥5 mg/kg/d (FIG. 1). […] Previous studies documented that in vitro treatment of human prostate cancer cells (LNCaP) with 1-10 μM TasQ rapidly (i.e., ≤1 day) induces the transcription of a series of AHR target genes (e.g., Cyp1a1, Cyp1b1, AHRR, TPARP, GDF15) (Olsson 2010). […]

In another data set the test system is LNCaP cells. As to the kind of experiment: In vitro growth of LNCaP cells. Type of data set: cell-based, human. Conditions: for LNCaP growth when combined with 3 nM docetaxel: 10 μM compound + 3 nM docetaxel.
Text: as §1
Similarly, under such optimal conditions, knocking down HDAC4 expression by 50% with shRNA only decreases the growth of LNCaP cells by <25%, which is equivalent to the inhibition by TasQ at 10 μM (FIG. 22). […] In contrast to normoxic in vitro conditions, cancers outgrow their blood supply in vivo, producing a TME that is hypoxic, nutrient-limited, and acidic (low pH). For example, when prostate cancer xenografts growing subcutaneously reach a size of ˜0.2-0.3 cc, the TME is already hypoxic with a pO2 of 3.6+/−1.5 mmHg compared to 37.5+/−8.6 mmHg in normal tissue (Dalrymple et al. Prostate 72, 638-648 (2012)). […]

Data set [2] is described as follows: Pharmacokinetic (PK) analysis after oral dosing in mice. Type of data set: in vivo, mouse. Conditions: for half-life: oral, 10 mg/kg. The protocol: as §2
Pharmacokinetic (PK) Analysis. Plasma or serum samples; 50 uL of plasma or serum was transferred into a 1.7 mL microfuge tube. Three volumes of acetonitrile containing 0.1% TFA was added and the sample was vortexed for 1 to 3 minute, then centrifuged at 13,000 RPM in a microcentrifuge. 120 uL of the resulting supernatant was loaded into a sample loop with a cut off volume of 100 uL and injected into the HPLC onto a C18 reverse phase column. The HPLC system was a WATERS 600 series quaternary system with a 2487 dual wavelength detector set at 215 nm and 332 nm. Mobile phase A was 5% Acetonitrile/water, 0.1% TFA Mobile phase B was 95% Acetonitrile/water, 0.1% TFA 1.5 mL/min 20% B to 98% B in 10 minutes, hold for 5 minutes return to initial condition for 4 minutes/Retention time for tasquinimod was 11 min, RT for ESATA20 was 13.3 min with no observable interference from endogenous mouse peaks.

A further data set has as its system liver Cyp1a1. As to the kind of experiment: Mouse liver Cyp1a1 induction after oral dosing (Q-PCR). It counts as in vivo. The text has this: Real-time quantitative PCR (Q-PCR) analysis. […] ID NO: 2) and […] ID NO: 3). […] ID NO: 4) and […] ID NO: 5).

SMILES strings stand for the structures. Like-named read-outs stand apart in the source and are kept apart here. Some results are limits rather than exact numbers.

By IC50 is commonly meant the concentration that gives 50% inhibition. Lower therefore signals greater potency. Usually half-life stands for the time in which the quantity being followed falls by half. A word on the Cmax: it is the highest concentration seen after dosing. For the compound `COc1cccc2c1c(O)c(C(=O)N(c1ccc(C(F)(F)F)cc1)C1CCCCC1)c(=O)n2C` [ESATA-20], in data set [1] (10 mg/kg/d), the “anti-cancer efficacy compared with TasQ” value is given as “same maximal anti-cancer efficacy as TasQ” and the “CWR22-RH Tumor Growth (% inhibition +/− SD)” value is listed as 80 +/− 15%. Besides, the “fold more potent than TasQ in inhibiting CWR22-RH xenograft growth” value in data set [1] (on a molar basis) is “at least 5 fold”. Also, the “LNCaP growth when combined with 3 nM docetaxel” value in the data set with LNCaP cells is given as “completely inhibited”. Also, in the data set on LNCaP cells (Homo sapiens, LNCaP line), the IC50 is greater than 10 µM. For the same compound, in data set [2] (10 mg/kg oral), the “fold lower bioavailability than TasQ” value is 5.5 fold. Moreover, the “drug bound to serum proteins” value in data set [2] (mouse, in vivo) is greater than 98%. For the same compound, the half-life in data set [2] (mouse, serum, read-out: alpha half-life for tissue distribution (converted)) is 3 h. For the same compound, the half-life in data set [2] (mouse, serum, read-out: beta half-life for serum elimination) lay within 10 to 12 h. This compound also returned a maximum concentration (Cmax) in data set [2] (mouse, serum, 10 mg/kg oral dose) of 7.91 µM. Moreover, the “induction of liver Cyp1a1” value in the data set with liver Cyp1a1 (given orally at 30 mg/kg/d) was “lack of induction”.

As a reminder, the inhibition is the share of the control response that was lost under treatment. Low values mean a response near the control, high ones a response far below the control. As for `COc1cccc2c1c(O)c(C(=O)N(C)c1ccc(C(F)(F)F)cc1)c(=O)n2C` [TasQ, Tasquinimod], the “CWR22-RH Tumor Growth (% inhibition +/− SD)” value in data set [1] (10 mg/kg/d) was 87 +/− 11%. Besides, the “plasma concentration required to maximally inhibit in vivo prostate cancer xenograft growth” value in data set [1] (combined xenograft and PK results) was greater than 2 µM. For the same compound, the “oral daily dose giving maximal growth inhibition” value in data set [1] (maintenance therapy, CWR22-RH PDX) is no less than 5 mg/kg/day. Besides, the “LNCaP growth when combined with 3 nM docetaxel” value with LNCaP cells was “does not occur”. This compound also came in with an inhibition at 10 µM in the data set on LNCaP cells (Homo sapiens, LNCaP, 10 μM, normoxic) of less than 25%. For the same compound, the Cmax stood at 44 µM in data set [2] (10 mg/kg oral dose, read-out: serum Cmax) and 20 µM in data set [2] (oral 5 mg/kg/d, 1 hr post-dosing, read-out: serum Cmax). In addition, in data set [2] (4-week old FVB male mice, oral 10 mg/kg/d over 14 days), the “serum drug level maintained” value is greater than 1 µM. Besides, in the data set with liver Cyp1a1 (daily oral 10 mg/kg, alone and in combination with B(a)P), the “induction of liver Cyp1a1” value was greater than 50 fold.
